Measured values published in patent US8993721B2, “Peptides for targeting apoptotic cells and uses thereof” (Kyungpook National University Industry-Academic Cooperation …, priority 2008, dated 2015).
Entries after “also recorded” stand apart in the source; their conditions may differ. Where no end group is shown, it is not given here.

Experiments:
[1] = test system: necrosis-induced A549 cells (glucose-depleted medium); assay: Microscopic observation of binding of the peptide to necrotic cells (Example 9-4); format: cell-based, human; details: glucose-depleted medium 24 hours; 10 μM fluorescein-labeled peptide 4° C. 1 hour
Description: A549 Cells were cultured in chamber slide (Nunc) and treated with glucose-depleted medium for 24 hours to induce necrosis. The necrosis-induced cells were washed with PBS and blocked with 1% BSA at 37° C. for 30 minutes. Then, the cells were reacted with 10 μM of the peptide labeled with fluorescein, at 4° C. for 1 hour. After washing, the cells were reacted with […] Hoechst […] dye and […] PI at 37° C. for 15 minutes. The cells were washed with PBS and then fixed with 4% paraformaldehyde for 5 minutes.

[2] = test system: trail-treated apoptotic MDA-MB231 cells; assay: Microscopic observation of binding of the peptide to apoptotic cells, MDA-MB231 (Example 9-1); format: cell-based
Description: Cells were cultured in chamber slide (Nunc) and treated with 50 μM etoposide (Sigma) for 16 hours (A549 cells) or 50 ng/ml trail (R&D Systems) for 16 hours (MDA-MB231 cells) to induce apoptosis. The cells were cultured in RMPI-1640 medium (A549 cells) or DMEM-High (MDA-MB231 cells) containing antibiotics (penicillin and streptomycin) and 10% FBS. All the cells were sub-cultured every 3 or 4 days. The apoptosis-induced apoptotic cells were washed with PBS and blocked with 1% BSA at 37° C. for 30 minutes. Then, the cells were reacted with 10 μM of the peptide labeled with fluorescein, at 4° C. for 1 hour. After washing, the cells were reacted with an annexin V reaction buffer containing Alexa594-labeled annexin V (Invitrogen) at room temperature for 15 minutes. The cells were washed with PBS and then fixed with 4% paraformaldehyde for 5 minutes. After treatment with a mounting solution containing the DAPI nuclear stain, images of the cells were obtained under a fluorescence microscope.

[3] = test system: apoptotic cells in A549 tumor tissue xenotransplanted in nude mouse; assay: Histological analysis of tumor targeting (Example 8); format: in vivo; details: fluorescein-labeled peptide, tail vein, 50 μM
Description: All animal experiments were performed in accordance with the guideline of the Institutional Animal Care and Use Committee. For tumor xenotransplantation, human lung cancer cells (A549, 1×10^6 cells) suspended in RMPI-1640 medium was subcutaneously injected at the right upper or lower limb of a 6-week-old male BALB/c nude mouse (Hyochang Science). Then, 3 to 4 weeks were given for the tumor to grow to a size of 0.5 to 1 cm. The A549 cell line used in the experiment was cultured in RMPI-1640 medium containing 10% fetal bovine serum (FBS) in which antibiotics (penicillin and streptomycin) were included. Subculturing was performed every 3 or 4 days.
The peptides used in the present invention were fluorescein-attached form at the N-terminal. They were synthesized according to the standard Fmoc technique and then isolated through HPLC. The peptide synthesis was performed by an expertise company (Peptron). […]
For histological analysis, the mouse was anesthetized and the abdomen was cut open. […] After treatment with a mounting solution containing the nuclear stain 4′,6-diamidino-2-phenylindole (DAPI) (Invitrogen), images of the cells were obtained under a fluorescence microscope (Zeiss).

apoptotic A549 cells = assay: Competitive inhibition of binding to apoptotic cells by annexin V treatment (Example 9-2); format: cell-based, human; details: annexin V 1000 μM pre-treatment
Description: In order to further investigate the binding properties of the polypeptide of the present invention (ApoPep-2) to apoptotic cells, competitive inhibition by annexin V was measured. To this end, first, apoptotic A549 cells were pre-treated with annexin V, not labeled with fluorescence, at concentrations of 0, 500 and 1000 μM. Then, after reacting the cells with fluorescence-labeled annexin V under the same condition as described in Example <9-1>, the binding of the cells was observed under a fluorescence microscope.
Further, apoptotic A549 cells were pre-treated with annexin V, not labeled with fluorescence, at a concentration of 1000 μM. Then, after reacting the cells with fluorescence-labeled peptide under the same condition as described in Example <9-1>, the binding of the cells was observed under a fluorescence microscope.

Substance: CSVAPR (also: fluorescein or Cy7.5 label) [ApoPep-2, peptide CSVAPR screened for endothelial cells; used fluorescein- or Cy7.5-labeled]
- labeling of glucose-depleted necrotic cells [1]: did not bind to the necrosis-induced cells; also recorded: no labeling was observed
- labeling of trail-treated apoptotic MDA-MB231 cells ([2]; 50 ng/ml trail 16 hours, 10 μM fluorescein-labeled peptide 4° C. 1 hour, Alexa594-annexin V): strongly bound to the apoptotic cells; also recorded: labeling was observed
- labeling of MDA-MB231 cells not treated with trail ([2]; 10 μM peptide 4° C. 1 hour, Alexa594-annexin V): hardly bound to the untreated cells; also recorded: no labeling was observed
- location of peptide binding relative to annexin V binding (merge), MDA-MB231 ([2]; trail-treated apoptotic cells): at the same locations
- binding to cells stained by TUNEL (apoptotic cells) in the tumor tissue ([3]; 2 hours): target the tumor tissue and mainly bind to the tumor cells undergoing apoptosis; also recorded: binds to the cells stained by TUNEL
- peptide fluorescence observed in the tumor tissue ([3]; 2 hours circulation): observed in the tumor tissue
- binding of fluorescence-labeled peptide after pre-treatment with unlabeled annexin V (apoptotic A549 cells): not inhibited
